Reference: patent US9185897B2, “Methods to deliver and maintain volatile compounds” (AUBURN UNIVERSITY, priority 2010, dated 2015)

Assay: Release rate of a volatile compound from a model manually replenished system (mass loss of vials through a mass-regulating barrier)
Type: physicochemical
Conditions: low-density polyethylene barrier, 0.004 inch-thick; air about 1.4 m/s; substantially constant over 133 days in the laboratory (FIG. 5)
Description: Experimental release rates of a volatile compound from a model manually replenished system were measured as a function of time. Glass screw-thread sample vials with PTFE/silicone septa and open-top polypropylene caps contained the volatile liquid compound. Two different sizes of vials were employed: small 8 mL capacity (17 mm O.D. and 63 mm height) and large 40 mL capacity (28 mm O.D. and 98 mm height). The test volatile compound selected for study was dimethyldisulfide (DMDS). Duplicate samples of 5.5 mL and 30 mL of DMDS were added to the small and large vials, respectively. Then a mass-regulating barrier was placed on the top of each vial, and the open-top cap was tightly screwed to seal the vial contents. The diameters of the mass-regulating barriers for the small and large vials were 13.4 and 22.0 mm, respectively. In addition, the diameters of the openings in the caps for the small and large vials were 8.78 mm and 14.62 mm, respectively. Each vial with barrier, cap and liquid contents was then immediately weighed on an analytical balance. Next, the vials were placed in a dedicated laboratory fume hood. Ambient air with a bulk velocity of about 1.4 m/s (or 3 mph) passed over the vials. […] From these primary measurements the release rate for each […] was determined as a function of time. […]

For `CSSC` [DMDS, dimethyldisulfide], the release rate was 26 mg/day.
